According to ChEMBL document CHEMBL3045835, “Comparative study of conventional and microwave-assisted synthesis of some Schiff bases and their potential as antimicrobial agents” (2012):
Values after ≈ are worked out from the molar mass of the structure shown.

How the values were obtained:
Format in all cases: functional
Aspergillus niger [1] = test: Antifungal activity against Aspergillus niger MTCC 2546 at 500 ug/ml after 18 hr by cup-plate method; details: MTCC 2546, 18 h, read-out: DIZ
Bacillus pumilus [2] = test: Antibacterial activity against Bacillus pumilus MTCC 1456 at 100 ug/ml after 18 hr by cup-plate method; details: MTCC 1456, 18 h, read-out: DIZ
Bacillus pumilus [3] = test: Antibacterial activity against Bacillus pumilus MTCC 1456 at 1500 ug/ml after 18 hr by cup-plate method; details: MTCC 1456, 18 h, read-out: DIZ
Bacillus subtilis [4] = test: Antibacterial activity against Bacillus subtilis MTCC 441 at 200 ug/ml after 18 hr by cup plate method; details: MTCC 441, 18 h, read-out: DIZ
Aspergillus niger [5] = test: Antifungal activity against Aspergillus niger MTCC 2546 at 200 ug/ml after 18 hr by cup-plate method; details: MTCC 2546, 18 h, read-out: DIZ
Bacillus subtilis [6] = test: Antibacterial activity against Bacillus subtilis MTCC 441 at 1500 ug/ml after 18 hr by cup plate method; details: MTCC 441, 18 h, read-out: DIZ
Escherichia coli [7] = test: Antibacterial activity against Escherichia coli MTCC 1573 at 500 ug/ml after 18 hr by cup-plate method; details: MTCC 1573, 18 h, read-out: DIZ
Bacillus subtilis [8] = test: Antibacterial activity against Bacillus subtilis MTCC 441 at 1000 ug/ml after 18 hr by cup plate method; details: MTCC 441, 18 h, read-out: DIZ
Pseudomonas fluorescens [9] = test: Antibacterial activity against Pseudomonas fluorescens MTCC 2421 at 200 ug/ml after 18 hr by cup-plate method; details: MTCC 2421, 18 h, read-out: DIZ
Pseudomonas aeruginosa [10] = test: Antibacterial activity against Pseudomonas aeruginosa MTCC 424 at 100 ug/ml after 18 hr by cup-plate method; details: MTCC 424, 18 h, read-out: DIZ
Penicillium chrysogenum [11] = test: Antifungal activity against Penicillium chrysogenum MTCC 161 at 200 ug/ml after 18 hr by cup-plate method; details: MTCC 161, 18 h, read-out: DIZ
Staphylococcus aureus [12] = test: Antibacterial activity against Staphylococcus aureus MTCC 1430 after 24 hr by broth dilution method; details: MTCC 1430, 24 h
Pseudomonas aeruginosa [13] = test: Antibacterial activity against Pseudomonas aeruginosa MTCC 424 at 200 ug/ml after 18 hr by cup-plate method; details: MTCC 424, 18 h, read-out: DIZ
Escherichia coli [14] = test: Antibacterial activity against Escherichia coli MTCC 1573 after 24 hr by broth dilution method; details: MTCC 1573, 24 h
Aspergillus niger [15] = test: Antifungal activity against Aspergillus niger MTCC 2546 at 100 ug/ml after 18 hr by cup-plate method; details: MTCC 2546, 18 h, read-out: DIZ
Pseudomonas aeruginosa [16] = test: Antibacterial activity against Pseudomonas aeruginosa MTCC 424 at 1000 ug/ml after 18 hr by cup-plate method; details: MTCC 424, 18 h, read-out: DIZ
Pseudomonas fluorescens [17] = test: Antibacterial activity against Pseudomonas fluorescens MTCC 2421 at 100 ug/ml after 18 hr by cup-plate method; details: MTCC 2421, 18 h, read-out: DIZ
Staphylococcus aureus [18] = test: Antibacterial activity against Staphylococcus aureus MTCC 1430 at 1000 ug/ml after 18 hr by cup-plate method; details: MTCC 1430, 18 h, read-out: DIZ
Staphylococcus aureus [19] = test: Antibacterial activity against Staphylococcus aureus MTCC 1430 at 500 ug/ml after 18 hr by cup-plate method; details: MTCC 1430, 18 h, read-out: DIZ
Penicillium chrysogenum [20] = test: Antifungal activity against Penicillium chrysogenum MTCC 161 at 1500 ug/ml after 18 hr by cup-plate method; details: MTCC 161, 18 h, read-out: DIZ
Bacillus subtilis [21] = test: Antibacterial activity against Bacillus subtilis MTCC 441 after 24 hr by broth dilution method; details: MTCC 441, 24 h
Aspergillus niger [22] = test: Antifungal activity against Aspergillus niger MTCC 2546 at 1500 ug/ml after 18 hr by cup-plate method; details: MTCC 2546, 18 h, read-out: DIZ
Escherichia coli [23] = test: Antibacterial activity against Escherichia coli MTCC 1573 at 1500 ug/ml after 18 hr by cup-plate method; details: MTCC 1573, 18 h, read-out: DIZ
Escherichia coli [24] = test: Antibacterial activity against Escherichia coli MTCC 1573 at 200 ug/ml after 18 hr by cup-plate method; details: MTCC 1573, 18 h, read-out: DIZ
Micrococcus luteus [25] = test: Antibacterial activity against Micrococcus luteus MTCC 1538 at 1500 ug/ml after 18 hr by cup-plate method; details: MTCC 1538, 18 h, read-out: DIZ
Pseudomonas fluorescens [26] = test: Antibacterial activity against Pseudomonas fluorescens MTCC 2421 at 1000 ug/ml after 18 hr by cup-plate method; details: MTCC 2421, 18 h, read-out: DIZ
Staphylococcus aureus [27] = test: Antibacterial activity against Staphylococcus aureus MTCC 1430 at 1500 ug/ml after 18 hr by cup-plate method; details: MTCC 1430, 18 h, read-out: DIZ
Bacillus subtilis [28] = test: Antibacterial activity against Bacillus subtilis MTCC 441 at 100 ug/ml after 18 hr by cup plate method; details: MTCC 441, 18 h, read-out: DIZ
Bacillus pumilus [29] = test: Antibacterial activity against Bacillus pumilus MTCC 1456 at 1000 ug/ml after 18 hr by cup-plate method; details: MTCC 1456, 18 h, read-out: DIZ
Micrococcus luteus [30] = test: Antibacterial activity against Micrococcus luteus MTCC 1538 at 500 ug/ml after 18 hr by cup-plate method; details: MTCC 1538, 18 h, read-out: DIZ
Pseudomonas fluorescens [31] = test: Antibacterial activity against Pseudomonas fluorescens MTCC 2421 after 24 hr by broth dilution method; details: MTCC 2421, 24 h
Penicillium chrysogenum [32] = test: Antifungal activity against Penicillium chrysogenum MTCC 161 after 24 hr by broth dilution method; details: MTCC 161, 24 h
Penicillium chrysogenum [33] = test: Antifungal activity against Penicillium chrysogenum MTCC 161 at 1000 ug/ml after 18 hr by cup-plate method; details: MTCC 161, 18 h, read-out: DIZ
Staphylococcus aureus [34] = test: Antibacterial activity against Staphylococcus aureus MTCC 1430 at 200 ug/ml after 18 hr by cup-plate method; details: MTCC 1430, 18 h, read-out: DIZ
Micrococcus luteus [35] = test: Antibacterial activity against Micrococcus luteus MTCC 1538 after 24 hr by broth dilution method; details: MTCC 1538, 24 h
Pseudomonas aeruginosa [36] = test: Antibacterial activity against Pseudomonas aeruginosa MTCC 424 at 500 ug/ml after 18 hr by cup-plate method; details: MTCC 424, 18 h, read-out: DIZ
Escherichia coli [37] = test: Antibacterial activity against Escherichia coli MTCC 1573 at 1000 ug/ml after 18 hr by cup-plate method; details: MTCC 1573, 18 h, read-out: DIZ
Pseudomonas aeruginosa [38] = test: Antibacterial activity against Pseudomonas aeruginosa MTCC 424 after 24 hr by broth dilution method; details: MTCC 424, 24 h
Penicillium chrysogenum [39] = test: Antifungal activity against Penicillium chrysogenum MTCC 161 at 500 ug/ml after 18 hr by cup-plate method; details: MTCC 161, 18 h, read-out: DIZ
Bacillus pumilus [40] = test: Antibacterial activity against Bacillus pumilus MTCC 1456 after 24 hr by broth dilution method; details: MTCC 1456, 24 h
Pseudomonas aeruginosa [41] = test: Antibacterial activity against Pseudomonas aeruginosa MTCC 424 at 1500 ug/ml after 18 hr by cup-plate method; details: MTCC 424, 18 h, read-out: DIZ
Micrococcus luteus [42] = test: Antibacterial activity against Micrococcus luteus MTCC 1538 at 200 ug/ml after 18 hr by cup-plate method; details: MTCC 1538, 18 h, read-out: DIZ
Aspergillus niger [43] = test: Antifungal activity against Aspergillus niger MTCC 2546 at 1000 ug/ml after 18 hr by cup-plate method; details: MTCC 2546, 18 h, read-out: DIZ
Micrococcus luteus [44] = test: Antibacterial activity against Micrococcus luteus MTCC 1538 at 1000 ug/ml after 18 hr by cup-plate method; details: MTCC 1538, 18 h, read-out: DIZ
Aspergillus niger [45] = test: Antifungal activity against Aspergillus niger MTCC 2546 after 24 hr by broth dilution method; details: MTCC 2546, 24 h
Penicillium chrysogenum [46] = test: Antifungal activity against Penicillium chrysogenum MTCC 161 at 100 ug/ml after 18 hr by cup-plate method; details: MTCC 161, 18 h, read-out: DIZ
Bacillus pumilus [47] = test: Antibacterial activity against Bacillus pumilus MTCC 1456 at 500 ug/ml after 18 hr by cup-plate method; details: MTCC 1456, 18 h, read-out: DIZ
Micrococcus luteus [48] = test: Antibacterial activity against Micrococcus luteus MTCC 1538 at 100 ug/ml after 18 hr by cup-plate method; details: MTCC 1538, 18 h, read-out: DIZ
Escherichia coli [49] = test: Antibacterial activity against Escherichia coli MTCC 1573 at 100 ug/ml after 18 hr by cup-plate method; details: MTCC 1573, 18 h, read-out: DIZ
Bacillus pumilus [50] = test: Antibacterial activity against Bacillus pumilus MTCC 1456 at 200 ug/ml after 18 hr by cup-plate method; details: MTCC 1456, 18 h, read-out: DIZ
Bacillus subtilis [51] = test: Antibacterial activity against Bacillus subtilis MTCC 441 at 500 ug/ml after 18 hr by cup plate method; details: MTCC 441, 18 h, read-out: DIZ
Pseudomonas fluorescens [52] = test: Antibacterial activity against Pseudomonas fluorescens MTCC 2421 at 500 ug/ml after 18 hr by cup-plate method; details: MTCC 2421, 18 h, read-out: DIZ
Pseudomonas fluorescens [53] = test: Antibacterial activity against Pseudomonas fluorescens MTCC 2421 at 1500 ug/ml after 18 hr by cup-plate method; details: MTCC 2421, 18 h, read-out: DIZ

MIC (Staphylococcus aureus [12]): 600 µg/mL (≈ 3700 µM)
MIC (Escherichia coli [14]): 400 µg/mL (≈ 2470 µM)
MIC (Bacillus subtilis [21]): 300 µg/mL (≈ 1850 µM)
MIC (Pseudomonas fluorescens [31]): 300 µg/mL (≈ 1850 µM)
MIC (Penicillium chrysogenum [32]): 500 µg/mL (≈ 3080 µM)
MIC (Micrococcus luteus [35]): 300 µg/mL (≈ 1850 µM)
MIC (Pseudomonas aeruginosa [38]): 500 µg/mL (≈ 3080 µM)
MIC (Bacillus pumilus [40]): 300 µg/mL (≈ 1850 µM)
MIC (Aspergillus niger [45]): 500 µg/mL (≈ 3080 µM)
SMILES: C(=N\c1nc[nH]n1)/c1ccco1
zone of inhibition at 500 µg/mL (Aspergillus niger [1]): 18 mm
zone of inhibition at 100 µg/mL (Bacillus pumilus [2]): 11 mm
zone of inhibition at 1500 µg/mL (Bacillus pumilus [3]): 20 mm
zone of inhibition at 200 µg/mL (Bacillus subtilis [4]): 15 mm
zone of inhibition at 200 µg/mL (Aspergillus niger [5]): 16 mm
zone of inhibition at 1500 µg/mL (Bacillus subtilis [6]): 22 mm
zone of inhibition at 500 µg/mL (Escherichia coli [7]): 14 mm
zone of inhibition at 1000 µg/mL (Bacillus subtilis [8]): 17 mm
zone of inhibition at 200 µg/mL (Pseudomonas fluorescens [9]): 16 mm
zone of inhibition at 100 µg/mL (Pseudomonas aeruginosa [10]): 10 mm
zone of inhibition at 200 µg/mL (Penicillium chrysogenum [11]): 15 mm
zone of inhibition at 200 µg/mL (Pseudomonas aeruginosa [13]): 11 mm
zone of inhibition at 100 µg/mL (Aspergillus niger [15]): 11 mm
zone of inhibition at 1000 µg/mL (Pseudomonas aeruginosa [16]): 15 mm
zone of inhibition at 100 µg/mL (Pseudomonas fluorescens [17]): 13 mm
zone of inhibition at 1000 µg/mL (Staphylococcus aureus [18]): 15 mm
zone of inhibition at 500 µg/mL (Staphylococcus aureus [19]): 14 mm
zone of inhibition at 1500 µg/mL (Penicillium chrysogenum [20]): 21 mm
zone of inhibition at 1500 µg/mL (Aspergillus niger [22]): 23 mm
zone of inhibition at 1500 µg/mL (Escherichia coli [23]): 25 mm
zone of inhibition at 200 µg/mL (Escherichia coli [24]): 13 mm
zone of inhibition at 1500 µg/mL (Micrococcus luteus [25]): 22 mm
zone of inhibition at 1000 µg/mL (Pseudomonas fluorescens [26]): 20 mm
zone of inhibition at 1500 µg/mL (Staphylococcus aureus [27]): 18 mm
zone of inhibition at 100 µg/mL (Bacillus subtilis [28]): 11 mm
zone of inhibition at 1000 µg/mL (Bacillus pumilus [29]): 17 mm
zone of inhibition at 500 µg/mL (Micrococcus luteus [30]): 18 mm
zone of inhibition at 1000 µg/mL (Penicillium chrysogenum [33]): 18 mm
zone of inhibition at 200 µg/mL (Staphylococcus aureus [34]): 12 mm
zone of inhibition at 500 µg/mL (Pseudomonas aeruginosa [36]): 13 mm
zone of inhibition at 1000 µg/mL (Escherichia coli [37]): 15 mm
zone of inhibition at 500 µg/mL (Penicillium chrysogenum [39]): 17 mm
zone of inhibition at 1500 µg/mL (Pseudomonas aeruginosa [41]): 21 mm
zone of inhibition at 200 µg/mL (Micrococcus luteus [42]): 16 mm
zone of inhibition at 1000 µg/mL (Aspergillus niger [43]): 19 mm
zone of inhibition at 1000 µg/mL (Micrococcus luteus [44]): 21 mm
zone of inhibition at 100 µg/mL (Penicillium chrysogenum [46]): 11 mm
zone of inhibition at 500 µg/mL (Bacillus pumilus [47]): 16 mm
zone of inhibition at 100 µg/mL (Micrococcus luteus [48]): 12 mm
zone of inhibition at 100 µg/mL (Escherichia coli [49]): 10 mm
zone of inhibition at 200 µg/mL (Bacillus pumilus [50]): 15 mm
zone of inhibition at 500 µg/mL (Bacillus subtilis [51]): 16 mm
zone of inhibition at 500 µg/mL (Pseudomonas fluorescens [52]): 18 mm
zone of inhibition at 1500 µg/mL (Pseudomonas fluorescens [53]): 23 mm
